In US20250304576A1 (Cancer Research Technology Limited, priority 2022, published 2025):

Experiments:
[1] = target: T1, Recombinant IKKα (Homo sapiens, UniProt O15111); test: DELFIA IKKα kinase assay (apparent Ki, Cheng-Prusoff); type: biochemical
T1 construct: purchased Millipore, Dundee, UK
T1 sequence (O15111 1-745): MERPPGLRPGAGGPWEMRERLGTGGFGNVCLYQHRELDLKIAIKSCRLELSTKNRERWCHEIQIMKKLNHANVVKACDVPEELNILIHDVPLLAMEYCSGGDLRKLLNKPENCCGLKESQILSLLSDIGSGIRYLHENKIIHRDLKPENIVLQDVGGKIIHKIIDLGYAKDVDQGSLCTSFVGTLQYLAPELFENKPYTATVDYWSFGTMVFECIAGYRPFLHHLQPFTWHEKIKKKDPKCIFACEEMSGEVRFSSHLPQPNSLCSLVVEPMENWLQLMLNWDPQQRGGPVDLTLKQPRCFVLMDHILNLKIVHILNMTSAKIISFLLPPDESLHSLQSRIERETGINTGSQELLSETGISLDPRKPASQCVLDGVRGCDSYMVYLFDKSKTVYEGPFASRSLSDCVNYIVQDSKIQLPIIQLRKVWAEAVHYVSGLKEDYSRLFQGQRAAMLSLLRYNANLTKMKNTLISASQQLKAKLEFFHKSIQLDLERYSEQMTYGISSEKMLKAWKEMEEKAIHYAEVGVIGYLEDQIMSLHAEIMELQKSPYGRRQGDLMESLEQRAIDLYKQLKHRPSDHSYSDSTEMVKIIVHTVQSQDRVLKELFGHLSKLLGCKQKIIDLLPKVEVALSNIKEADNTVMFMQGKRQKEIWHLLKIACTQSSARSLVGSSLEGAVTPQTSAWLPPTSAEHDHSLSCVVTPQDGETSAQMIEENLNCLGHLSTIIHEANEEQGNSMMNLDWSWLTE
How it was run: (§1)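 Recombinant IKKα or IKKβ (37 nM) with 0.375 μM biotinylated IκB-α (Ser32) peptide and 40 μM ATP in 40 mM Tris-HCl pH 7.5, 20 mM MgCl2, 60 min at 30° C. Phospho-substrate captured on streptavidin and detected by anti-phospho-IκB-α plus europium anti-mouse IgG time-resolved fluorescence; apparent Ki via Cheng-Prusoff.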

[2] = target: T2, Recombinant IKKβ (Homo sapiens, UniProt O14920); test: DELFIA IKKβ kinase assay (apparent Ki, Cheng-Prusoff); type: biochemical
T2 construct: purchased Millipore, Dundee, UK
T2 sequence (O14920 1-756): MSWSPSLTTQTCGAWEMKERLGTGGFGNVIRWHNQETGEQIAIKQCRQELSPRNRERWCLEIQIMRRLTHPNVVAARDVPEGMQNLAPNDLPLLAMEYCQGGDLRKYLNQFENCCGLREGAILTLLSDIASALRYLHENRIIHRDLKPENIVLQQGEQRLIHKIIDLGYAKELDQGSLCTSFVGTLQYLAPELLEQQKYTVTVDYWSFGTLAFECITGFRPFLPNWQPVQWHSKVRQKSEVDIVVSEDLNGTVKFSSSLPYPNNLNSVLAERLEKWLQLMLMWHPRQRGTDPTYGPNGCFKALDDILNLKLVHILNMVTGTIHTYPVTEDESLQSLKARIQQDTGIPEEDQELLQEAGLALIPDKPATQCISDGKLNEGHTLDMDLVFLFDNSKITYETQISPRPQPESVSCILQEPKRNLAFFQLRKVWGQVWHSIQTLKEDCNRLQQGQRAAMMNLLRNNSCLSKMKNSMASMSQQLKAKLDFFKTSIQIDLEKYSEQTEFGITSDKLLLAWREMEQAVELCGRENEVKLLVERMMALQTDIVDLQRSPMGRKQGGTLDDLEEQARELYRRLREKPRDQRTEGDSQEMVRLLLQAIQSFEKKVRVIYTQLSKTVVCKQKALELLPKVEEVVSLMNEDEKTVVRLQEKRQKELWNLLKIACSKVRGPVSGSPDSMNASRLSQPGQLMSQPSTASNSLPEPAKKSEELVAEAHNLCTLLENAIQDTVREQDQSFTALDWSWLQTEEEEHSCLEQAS
How it was run: as §1

[3] = non-italicised figure: DELFIA assay
[4] = DELFIA assay (first line of an example)

| Ki [1, 3] [nM] | Ki [2, 3] [nM] | Ki [1, 4] [nM] | Ki [2, 4] [nM] | SMILES |
| --- | --- | --- | --- | --- |
| 81 | 5030 | – | – | Nc1cc(-c2cc(C#Cc3ccccc3)c3[nH]nc(N)c3c2)ccn1 [Example 138, 5-(2-Aminopyridin-4-yl)-7-(phenylethynyl)-1H-indazol-3-amine] |
| 79 | 2000 | – | – | CS(=O)(=O)c1cccc(-c2cc(-c3ccnc(N)c3)cc3c(N)n[nH]c23)c1 [Example 115] |
| 35 | 1260 | – | – | Nc1n[nH]c2c(-c3ccccc3)cc(-c3ccnc4[nH]ccc34)cc12 [Example 7, 7-Phenyl-5-(1H-pyrrolo[2,3-b]pyridin-4-yl)-1H-indazol-3-amine] |
| 8 | 1340 | – | – | CC(C)(C)C#Cc1cc(-c2ccnc(NCCO)c2)cc2c(N)n[nH]c12 [Example 160, 2-((4-(3-Amino-7-(3,3-dimethylbut-1-yn-1-yl)-1H-indazol-5-yl)pyridin-2-yl)amino)ethan-1-ol] |
| 29 | 406 | – | – | Nc1cc(-c2cc(-c3ccc(CO)cc3)c3[nH]nc(N)c3c2)ccn1 [Example 118] |
| – | – | 95 | 922 | CCC(O)(CC)c1cc2c(-c3ccc4[nH]nc(N)c4c3)ccnc2[nH]1 [Example 226, 3-(4-(3-Amino-1H-indazol-5-yl)-1H-pyrrolo[2,3-d]pyridin-2-yl)pentan-3-ol] |
| 55 | 587 | – | – | COc1cccc(-c2cc(-c3ccnc(N)c3)cc3c(N)n[nH]c23)c1 [Example 109, 5-(2-Aminopyridin-4-yl)-7-(3-methoxyphenyl)-1H-indazol-3-amine] |
| 8 | 32 | – | – | Nc1ccc(C#Cc2c(-c3ccc4[nH]nc(N)c4c3)ccnc2N)cc1 [Example 76, 5-(2-Amino-3-((4-aminophenyl)ethynyl)pyridine-4-yl)-1H-indazol-3-amine] |
| 89 | 3330 | – | – | CC(C)(C)C#Cc1cc(-c2ccnc(NC(=O)C3CCC3)c2)cc2c(N)n[nH]c12 [Example 172, N-(4-(3-Amino-7-(3,3-dimethylbut-1-yn-1-yl)-1H-indazol-5-yl)pyridin-2-yl)cyclobutanecarboxamide] |
| 33 | 335 | – | – | Nc1n[nH]c2ccc(-c3ccnc(NCCCCCO)c3)cc12 [Example 23] |
| 26 | 1550 | – | – | CC(C)(C)C#Cc1cc(-c2ccnc(NC(=O)CC3CC3)c2)cc2c(N)n[nH]c12 [Example 170, N-(4-(3-Amino-7-(3,3-dimethylbut-1-yn-1-yl)-1H-indazol-5-yl)pyridin-2-yl)-2-cyclopropylacetamide] |
| – | – | 38 | 256 | Nc1n[nH]c2c(C#CCCCCC(=O)O)cc(-c3ccnc4[nH]ccc34)cc12 [Example 215, 7-(3-Amino-5-(1H-pyrrolo[2,3-b]pyridin-4-yl)-1H-indazol-7-yl)hept-6-ynoic acid] |
| – | – | 6 | 79 | COC(=O)Nc1cc(-c2cc(-c3ccc(N)cc3)c3[nH]nc(N)c3c2)ccn1 [Example 325, Methyl (4-(3-amino-7-(4-aminophenyl)-1H-indazol-5-yl)pyridin-2-yl)carbamate] |
| 47 | 721 | – | – | COC(=O)Nc1cc(-c2cc(C#CCN3CCOCC3)c3[nH]nc(N)c3c2)ccn1 [Example 183, Methyl (4-(3-amino-7-(3-morpholinoprop-1-yn-1-yl)-1H-indazol-5-yl)pyridin-2-yl)carbamate] |
| – | – | 82 | 1240 | CC(C)(C)C#Cc1cc(-c2ccnc3[nH]c(C4CCC4)nc23)cc2c(N)n[nH]c12 [Example 301, 5-(2-Cyclobutyl-3H-imidazo[4,5-b]pyridin-7-yl)-7-(3,3-dimethylbut-1-yn-1-yl)-1H-indazol-3-amine] |
| 162 | 1010 | – | – | Nc1cc(-c2cc(-c3cccc(C(F)(F)F)c3)c3[nH]nc(N)c3c2)ccn1 [Example 106, 5-(2-Aminopyridin-4-yl)-7-(3-(trifluoromethyl)phenyl)-1H-indazol-3-amine] |
| 26 | 316 | – | – | Nc1cc(-c2cc(-c3cncs3)c3[nH]nc(N)c3c2)ccn1 [Example 132, 5-(2-Aminopyridin-4-yl)-7-(thiazol-5yl)-1H-indazol-3-amine] |
| – | – | 12 | 1170 | COC(=O)Nc1cc(-c2cc(C#CC(C)(C)C)c3[nH]nc(N)c3c2)ccn1 [Example 190, Methyl (4-(3-amino-7-(3,3-dimethylbut-1-yn-1-yl)-1H-indazol-5-yl)pyridin-2-yl)carbamate] |
| 221 | > 10000 | – | – | COCCNc1cc(-c2ccc3[nH]nc(N)c3c2)ccn1 [Example 25, 5-(2-((2-Methoxyethyl)amino)pyridine-4-yl)-1H-indazol-3-amine] |
| 170 | > 10000 | – | – | C[C@H]1CC[C@H](Nc2cc(-c3ccc4[nH]nc(N)c4c3)ccn2)CC1 [Example 19, 5-{2-[(Trans-4-methylcyclohexyl)amino]pyridin-4-yl}-1H-indazol-3-amine] |
| 17 | 235 | – | – | Nc1cc(-c2cc(-c3ccc(O)cc3)c3[nH]nc(N)c3c2)ccn1 [Example 117, 4-(3-Amino-5-(2-aminopyridin-4-yl)-1H-indazol-7-yl)phenol] |
| 2 | 33 | – | – | Cc1cc2c(-c3ccc4[nH]nc(N)c4c3)ccnc2[nH]1 [Example 8, 5-(2-Methyl-1H-pyrrolo[2,3-b]pyridin-4-yl)-1H-indazol-3-amine] |
| 20 | 515 | – | – | COC(=O)Nc1cc(-c2cc(C#CC(C)(C)N)c3[nH]nc(N)c3c2)ccn1 [Example 181, Methyl (4-(3-amino-7-(3-amino-3-methylbut-1-yn-1-yl)-1H-indazol-5-yl)pyridin-2-yl)carbamate1] |
| 43 | 840 | – | – | NC(=O)c1cccc(-c2cc(-c3ccnc(N)c3)cc3c(N)n[nH]c23)c1 [Example 113, 3-(3-Amino-5-(2-aminopyridin-4-yl)-1H-indazol-7-yl)benzamide] |
| – | – | 29 | 193 | CCCCN(CC)CCNC(=O)c1cc2c(-c3ccc4[nH]nc(N)c4c3)ccnc2[nH]1 [Example 245, 4-(3-Amino-1H-indazol-5-yl)-N-(2-(butyl(ethyl)amino)ethyl)-1H-pyrrolo[2,3-b]pyridine-2-carboxamide] |
| 72 | 461 | – | – | Cc1cc(-c2ccnc(N)c2)cc2c(N)n[nH]c12 [Example 2, 5-(2-Aminopyridin-4-yl)-7-methyl-1H-indazol-3-amine] |
| 21 | 754 | – | – | Nc1n[nH]c2ccc(-c3ccnc(NC(=O)NCCO)c3)cc12 [Example 41, 1-(4-(3-Amino-1H-indazol-5-yl)pyridin-2-yl)-3-(2-hydroxyethyl)urea] |
| – | – | 8 | 109 | Nc1n[nH]c2ccc(-c3ccnc4[nH]c(C(=O)NCCN5CCCCC5)cc34)cc12 [Example 244, 4-(3-Amino-1H-indazol-5-yl)-N-(2-(piperidin-1-yl)ethyl)-1H-pyrrolo[2,3-b]pyridine-2-carboxamide] |
| 52 | 1260 | – | – | Nc1cc(-c2cc(-c3ccc(CN4CCOCC4)cc3)c3[nH]nc(N)c3c2)ccn1 [Example 122, 5-(2-Aminopyridin-4-yl)-7-(4-(morpholinomethyl)phenyl)-1H-indazol-3-amine] |
| – | – | 42 | 570 | Nc1n[nH]c2c(C#CC3CC3)cc(-c3ccnc(NC(=O)C4CC4)c3)cc12 [Example 289, N-(4-(3-Amino-7-(cyclopropylethynyl)-1H-indazol-5-yl)pyridin-2-yl)cyclopropanecarboxamide] |
